Source: patent US20260250272A1, “N-SUBSTITUTED QUINOLINONE COMPOUND, PREPARATION METHOD THEREFOR AND USE THEREOF” (VIGONVITA LIFE SCIENCES CO., LTD., priority 2022, published 2026)
≈ marks a conversion by molar mass, not a printed value.

assay: Oil solubility test in benzyl benzoate (HPLC); type: physicochemical; settings: organic solvent or mixture, thermodynamic from solid, 25° C., shaken 2 h
Experimental: The solubility test was performed by quantitative analysis using an external standard method of high-performance liquid chromatography.
Reference sample solution: 10 mg of reference sample was weighed, placed in a 20 mL volumetric flask, diluted to the scale with 80% acetonitrile, and shaken uniformly.
Test sample solution: an appropriate amount of sample was dissolved in benzyl benzoate to obtain a saturated solution. The mixture was placed in a shaker and shaken at 25° C. and 800 rpm for 2 h. The sample solution was filtered, and 100 μL of filtrate was added to a 10 mL volumetric flask, diluted to the scale with 80% acetonitrile, and shaken uniformly.

Question: For `CC(C)OC(=O)N1C(=O)CCc2ccc(CCN3CCN(c4cc(F)cc5sccc45)CC3)cc21` [Compound 4], which solubility at 2 h is on record?
Answer: 25.8 mg/mL (≈ 52 mM)

Question: With `CCCCCCCCCCCCCCCC(=O)OCn1c(=O)ccc2ccc(CCN3CCN(c4cc(F)cc5sccc45)CC3)cc21` [Compound 9, (7-(2-(4-(6-Fluorobenzo[b]thiophen-4-yl)piperazin-1-yl)ethyl)-2-oxoquinolin-1(2H)-yl)methyl palmitate] as the compound, how does the solubility at 2 h read?
Answer: > 200 mg/mL

Question: With `CCCCCCCCCC(=O)OCn1c(=O)ccc2ccc(CCN3CCN(c4cc(F)cc5sccc45)CC3)cc21` [Compound 10, (7-(2-(4-(6-Fluorobenzo[b]thiophen-4-yl)piperazin-1-yl)ethyl)-2-oxoquinolin-1(2H)-yl)methyl decanoate] as the compound, how does the solubility at 2 h read?
Answer: > 200 mg/mL

Question: With `CCCCCCCCCCCC(=O)OC(C)N1C(=O)CCc2ccc(CCN3CCN(c4cc(F)cc5sccc45)CC3)cc21` (centres unmarked) [Compound 13, 1-(7-(2-(4-(6-Fluorobenzo[b]thiophen-4-yl)piperazin-1-yl)ethyl)-2-oxo-3,4-dihydroquinolin-1(2H)-yl)ethyl dodecanoate] as the compound, how does the solubility at 2 h read?
Answer: > 200 mg/mL

Question: For `CCCCCCCCCCCOC(=O)OCN1C(=O)CCc2ccc(CCN3CCN(c4cc(F)cc5sccc45)CC3)cc21` [Compound 14, (7-(2-(4-(6-Fluorobenzo[b]thiophen-4-yl)piperazin-1-yl)ethyl)-2-oxo-3,4-dihydroquinolin-1(2H)-yl) methyl undecyl carbonate], which solubility at 2 h is on record?
Answer: > 200 mg/mL

Question: With `CCCCCCCCCCCCCCCC(=O)OC(C)N1C(=O)CCc2ccc(CCN3CCN(c4cc(F)cc5sccc45)CC3)cc21` (centres unmarked) [Compound 15, 1-(7-(2-(4-(6-Fluorobenzo[b]thiophen-4-yl)piperazin-1-yl)ethyl)-2-oxo-3,4-dihydroquinolin-1(2H)-yl) ethyl palmitate] as the compound, how does the solubility at 2 h read?
Answer: > 200 mg/mL

Question: With `CCCCCCCOC(=O)OCN1C(=O)CCc2ccc(CCN3CCN(c4cc(F)cc5sccc45)CC3)cc21` [Compound 25, (7-(2-(4-(6-Fluorobenzo[b]thiophen-4-yl)piperazin-1-yl)ethyl)-2-oxo-3,4-dihydroquinolin-1(2H)-yl) methyl heptyl carbonate] as the compound, how does the solubility at 2 h read?
Answer: > 200 mg/mL

Question: Which solubility at 2 h does the source give for `CCCCCCCCOC(=O)OCN1C(=O)CCc2ccc(CCN3CCN(c4cc(F)cc5sccc45)CC3)cc21` [Compound 26, (7-(2-(4-(6-Fluorobenzo[b]thiophen-4-yl)piperazin-1-yl)ethyl)-2-oxo-3,4-dihydroquinolin-1(2H)-yl) methyl octyl carbonate] here?
Answer: > 200 mg/mL

Question: With `CCCCCCCCCOC(=O)OCN1C(=O)CCc2ccc(CCN3CCN(c4cc(F)cc5sccc45)CC3)cc21` [Compound 27, (7-(2-(4-(6-Fluorobenzo[b]thiophen-4-yl)piperazin-1-yl)ethyl)-2-oxo-3,4-dihydroquinolin-1(2H)-yl) methyl nonyl carbonate] as the compound, how does the solubility at 2 h read?
Answer: > 200 mg/mL

Question: Which solubility at 2 h does the source give for `CCCCCCCCCCOC(=O)OCN1C(=O)CCc2ccc(CCN3CCN(c4cc(F)cc5sccc45)CC3)cc21` [Compound 28, Decyl ((7-(2-(4-(6-fluorobenzo[b]thiophen-4-yl)piperazin-1-yl)ethyl)-2-oxo-3,4-dihydroquinolin-1(2H)-yl)methyl) carbonate] here?
Answer: > 200 mg/mL

Question: With `CCCCCCCCCCCCOC(=O)OCN1C(=O)CCc2ccc(CCN3CCN(c4cc(F)cc5sccc45)CC3)cc21` [Compound 29, Dodecyl ((7-(2-(4-(6-fluorobenzo[b]thiophen-4-yl)piperazin-1-yl)ethyl)-2-oxo-3,4-dihydroquinolin-1(2H)-yl)methyl) carbonate] as the compound, how does the solubility at 2 h read?
Answer: > 200 mg/mL

Question: For `CCCCCCCCCCCCCCOC(=O)OCN1C(=O)CCc2ccc(CCN3CCN(c4cc(F)cc5sccc45)CC3)cc21` [Compound 30, (7-(2-(4-(6-Fluorobenzo[b]thiophen-4-yl)piperazin-1-yl)ethyl)-2-oxo-3,4-dihydroquinolin-1(2H)-yl) methyl tetradecyl carbonate], which solubility at 2 h is on record?
Answer: > 200 mg/mL

Question: With `CCCCCCCCCCCCCCCCOC(=O)OCN1C(=O)CCc2ccc(CCN3CCN(c4cc(F)cc5sccc45)CC3)cc21` [Compound 31, (7-(2-(4-(6-Fluorobenzo[b]thiophen-4-yl)piperazin-1-yl)ethyl)-2-oxo-3,4-dihydroquinolin-1(2H)-yl)methyl hexadecyl carbonate] as the compound, how does the solubility at 2 h read?
Answer: > 200 mg/mL

Question: Which solubility at 2 h does the source give for `CCCCCCCCCCCC(=O)OCn1c(=O)cc(F)c2ccc(CCN3CCN(c4cc(F)cc5sccc45)CC3)cc21` [Compound 38, (4-Fluoro-7-(2-(4-(6-fluorobenzo[b]thiophen-4-yl)piperazin-1-yl)ethyl)-2-oxoquinolin-1(2H)-yl)methyl dodecanoate] here?
Answer: > 200 mg/mL

Question: With `CCCCCCCCCCCC(=O)OCN1C(=O)CC(C)(C)c2ccc(CCN3CCN(c4cc(F)cc5sccc45)CC3)cc21` [Compound 43, (7-(2-(4-(6-Fluorobenzo[b]thiophen-4-yl)piperazin-1-yl)ethyl)-4,4-dimethyl-2-oxo-3,4-dihydroquinolin-1(2H)-yl)methyl dodecanoate] as the compound, how does the solubility at 2 h read?
Answer: > 200 mg/mL

Question: Which solubility at 2 h does the source give for `[2H]c1cc(=O)n(COC(=O)CCCCCCCCCCC)c2cc(CCN3CCN(c4cc(F)cc5sccc45)CC3)ccc12` [Compound 51, (7-(2-(4-(6-Fluorobenzo[b]thiophen-4-yl)piperazin-1-yl)ethyl)-2-oxoquinolin-1(2H)-yl-4-d)methyl dodecanoate] here?
Answer: > 200 mg/mL

Question: With `CCCCCCCC(=O)OCN1C(=O)CCc2ccc(CCN3CCN(c4cc(F)cc5sccc45)CC3)cc21` [Compound 61, (7-(2-(4-(6-Fluorobenzo[b]thiophen-4-yl)piperazin-1-yl)ethyl)-2-oxo-3,4-dihydroquinolin-1(2H)-yl) methyl octanoate] as the compound, how does the solubility at 2 h read?
Answer: > 200 mg/mL

Question: For `CCCCCCCCC(=O)OCN1C(=O)CCc2ccc(CCN3CCN(c4cc(F)cc5sccc45)CC3)cc21` [Compound 62, (7-(2-(4-(6-Fluorobenzo[b]thiophen-4-yl)piperazin-1-yl)ethyl)-2-oxo-3,4-dihydroquinolin-1(2H)-yl) methyl nonanoate], which solubility at 2 h is on record?
Answer: > 200 mg/mL

Question: For `CCCCCCCCCCC(=O)OCN1C(=O)CCc2ccc(CCN3CCN(c4cc(F)cc5sccc45)CC3)cc21` [Compound 63, (7-(2-(4-(6-Fluorobenzo[b]thiophen-4-yl)piperazin-1-yl)ethyl)-2-oxo-3,4-dihydroquinolin-1(2H)-yl) methyl undecanoate], which solubility at 2 h is on record?
Answer: > 200 mg/mL

Question: With `CCCCCCCCCCCCC(=O)OCN1C(=O)CCc2ccc(CCN3CCN(c4cc(F)cc5sccc45)CC3)cc21` [Compound 64, (7-(2-(4-(6-Fluorobenzo[b]thiophen-4-yl)piperazin-1-yl)ethyl)-2-oxo-3,4-dihydroquinolin-1(2H)-yl) methyl tridecanoate] as the compound, how does the solubility at 2 h read?
Answer: > 200 mg/mL

Question: With `CCCCCCCCCCCCCC(=O)OCN1C(=O)CCc2ccc(CCN3CCN(c4cc(F)cc5sccc45)CC3)cc21` [Compound 65, (7-(2-(4-(6-Fluorobenzo[b]thiophen-4-yl)piperazin-1-yl)ethyl)-2-oxo-3,4-dihydroquinolin-1(2H)-yl) methyl tetradecanoate] as the compound, how does the solubility at 2 h read?
Answer: > 200 mg/mL

Question: For `CCCCCCCCCCCCCCC(=O)OCN1C(=O)CCc2ccc(CCN3CCN(c4cc(F)cc5sccc45)CC3)cc21` [Compound 66, (7-(2-(4-(6-Fluorobenzo[b]thiophen-4-yl)piperazin-1-yl)ethyl)-2-oxo-3,4-dihydroquinolin-1(2H)-yl) methyl pentadecanoate], which solubility at 2 h is on record?
Answer: > 200 mg/mL

Question: Which solubility at 2 h does the source give for `CCCCCCCCCCCCCCCCC(=O)OCN1C(=O)CCc2ccc(CCN3CCN(c4cc(F)cc5sccc45)CC3)cc21` [Compound 67, (7-(2-(4-(6-Fluorobenzo[b]thiophen-4-yl)piperazin-1-yl)ethyl)-2-oxo-3,4-dihydroquinolin-1(2H)-yl) methyl heptadecanoate] here?
Answer: > 200 mg/mL
